Test results as given in paper PMC5378332, “Molecular actions of two synthetic brassinosteroids, iso-carbaBL and 6-deoxoBL, which cause altered physiological activities between Arabidopsis and rice” (PLoS ONE, 2017).

How the values were obtained:
rice BRI1 LRR17-ID-LRR18 = target: T1, rice BRI1 LRR17-ID-LRR18 (Oryza sativa, UniProt Q942F3); experiment: competition with BPCS photoaffinity crosslinking, anti-biotin immunoblot; assay type: binding; conditions: dose-dependent competition; GST-normalised
T1 construct: extracellular LRR17-island domain-LRR18 fragment, amino acids 484-600; N-terminal GST fusion from pGEX6P-1, GST kept; glutathione-Sepharose purified
T1 sequence (Q942F3 484-600): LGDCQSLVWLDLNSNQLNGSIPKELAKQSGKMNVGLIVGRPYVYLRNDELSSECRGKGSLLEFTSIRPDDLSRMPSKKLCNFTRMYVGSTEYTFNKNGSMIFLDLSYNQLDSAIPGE

[1] = target: T2, Arabidopsis BRI1 LRR21-ID-LRR22 (Arabidopsis thaliana, UniProt O22476); experiment: as above; assay type: binding; conditions: dose-dependent competition; GST-normalised
T2 construct: extracellular LRR21-island domain-LRR22 fragment, amino acids 556-673; N-terminal GST fusion from pGEX6P-1, GST kept; glutathione-Sepharose purified
T2 sequence (O22476 556-673): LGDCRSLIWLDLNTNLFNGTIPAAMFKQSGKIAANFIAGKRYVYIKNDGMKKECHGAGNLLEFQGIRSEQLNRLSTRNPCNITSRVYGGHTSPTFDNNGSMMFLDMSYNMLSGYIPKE

SMILES	competition with BPCS photoaffinity crosslinking, anti-biotin immunoblot (rice BRI1 LRR17-ID-LRR18)	competition with BPCS photoaffinity crosslinking, anti-biotin immunoblot [1]
CC(C)[C@H](C)[C@@H](O)[C@H](O)[C@@H](C)[C@H]1CC[C@H]2[C@@H]3COC(=O)[C@H]4C[C@H](O)[C@H](O)C[C@]4(C)[C@H]3CC[C@]12C [BL, (22R,23R,24S)-2α,3α,22,23-tetrahydroxy-24-methyl-B-homo7-oxa-5α-cholestan-6-one]	BL, the positive control, inhibited the binding of BPCS to both Arabidopsis and rice BRI1	–
CC(C)[C@H](C)[C@@H](O)[C@H](O)[C@@H](C)[C@H]1CC[C@H]2[C@@H]3CC(=O)C[C@H]4C[C@@H](O)[C@@H](O)C[C@]4(C)[C@H]3CC[C@]12C [iso-carbaBL]	decreased the binding of BPCS not only to Arabidopsis BRI1, but also to rice BRI1	decreased the binding of BPCS not only to Arabidopsis BRI1, but also to rice BRI1
